Source: ChEMBL document CHEMBL5034010, “Novel Cephalosporin Conjugates Display Potent and Selective Inhibition of Imipenemase-Type Metallo-β-Lactamases” (J Med Chem, 2021)
pIC50: −log10 of the molar value. ≈ marks a conversion by molar mass, not a printed value. Calls of active or inactive are those of the source. No cut-off for these calls is given here.

What was measured:
Klebsiella pneumoniae [1] = test: Inhibition of Metallo-beta-lactamase IMP-28 in Klebsiella pneumoniae clinical isolate assessed as fold reduction in meropenem MIC at 128 ug/ml; details: dose 128.0 µg/ml
[2] = Metabolic stability of the compound assessed as Klebsiella pneumoniae beta-lactamase IMP-28-mediated metabolism by (2R)-2-((R)-carboxy(2-phenylacetamido)methyl)-5-(((R)-carboxy(phenyl)methylthio)methyl)-5,6-dihydro-2H-1,3-thiazine-4-carboxylic acid by LC-MS analysis; type: ADME
Escherichia coli [3] = test: Inhibition of Metallo-beta-lactamase NDM-1 in Escherichia coli clinical isolate assessed as MIC for meropenem antibacterial activity at 32 ug/ml (reference value: 32 ug/ml); details: dose 32.0 µg/ml
Klebsiella pneumoniae [4] = test: Inhibition of Metallo-beta-lactamase IMP-28 in Klebsiella pneumoniae clinical isolate assessed as MIC for meropenem antibacterial activity at 128 ug/ml (reference value: 4 ug/ml); details: dose 128.0 µg/ml
Escherichia coli [5] = test: Inhibition of Metallo-beta-lactamase NDM-1 in Escherichia coli clinical isolate assessed as fold reduction in meropenem MIC at 128 ug/ml; details: dose 128.0 µg/ml
Klebsiella pneumoniae [6] = test: Inhibition of Metallo-beta-lactamase IMP-28 in Klebsiella pneumoniae clinical isolate assessed as MIC for meropenem antibacterial activity at 64 ug/ml (reference value: 4 ug/ml); details: dose 64.0 µg/ml
Escherichia coli [7] = test: Substrate activity at Escherichia coli beta-lactamase VIM-2 assessed as compound hydrolysis by measuring Kcat by Michaelis-Menten analysis
Escherichia coli [8] = test: Inhibition of Metallo-beta-lactamase VIM-2 in Escherichia coli clinical isolate assessed as MIC for meropenem antibacterial activity at 32 ug/ml (reference value: 8 ug/ml); details: dose 32.0 µg/ml
Enterobacter cloacae [9] = test: Antibacterial activity against beta-lactamase IMP1 producing Enterobacter cloacae clinical isolate measured upto 128 ug/ml; type: functional, organism-based
Escherichia coli [10] = test: Inhibition of Metallo-beta-lactamase VIM-2 in Escherichia coli clinical isolate assessed as fold reduction in meropenem MIC at 64 ug/ml; details: dose 64.0 µg/ml
Klebsiella pneumoniae [11] = test: Inhibition of Metallo-beta-lactamase IMP-28 in Klebsiella pneumoniae clinical isolate assessed as fold reduction in meropenem MIC at 32 ug/ml; details: dose 32.0 µg/ml
[12] = Inhibition of Klebsiella pneumoniae beta-lactamase IMP-28 using nitrocefin chromogenic substrate measured after 15 to 60 min at 25 degC by microplate reader
Escherichia coli [13] = test: Inhibition of Metallo-beta-lactamase VIM-2 in Escherichia coli clinical isolate assessed as fold reduction in meropenem MIC at 128 ug/ml; details: dose 128.0 µg/ml
Enterobacter cloacae [14] = test: Inhibition of Metallo-beta-lactamase IMP-1 in Enterobacter cloacae clinical isolate assessed as MIC for meropenem antibacterial activity at 32 ug/ml (reference value: 32 ug/ml); details: dose 32.0 µg/ml
Escherichia coli [15] = test: Inhibition of Metallo-beta-lactamase VIM-2 in Escherichia coli clinical isolate assessed as MIC for meropenem antibacterial activity at 128 ug/ml (reference value: 8 ug/ml); details: dose 128.0 µg/ml
Klebsiella pneumoniae [16] = test: Substrate activity at Klebsiella pneumoniae beta-lactamase IMP-28 assessed as compound hydrolysis by measuring Kcat/Km by Michaelis-Menten analysis
[17] = Stability of the compound in Muller hinton broth assessed compound remaining measured after 15 hrs by HPLC analysis; type: physicochemical; details: Mueller Hinton broth, read-out: Stability
Enterobacter cloacae [18] = test: Inhibition of Metallo-beta-lactamase IMP-1 in Enterobacter cloacae clinical isolate assessed as MIC for meropenem antibacterial activity at 64 ug/ml (reference value: 32 ug/ml); details: dose 64.0 µg/ml
Escherichia coli [19] = test: Substrate activity at Escherichia coli beta-lactamase VIM-2 assessed as compound hydrolysis by measuring Km by Michaelis-Menten analysis
Enterobacter cloacae [20] = test: Inhibition of Metallo-beta-lactamase IMP-1 in Enterobacter cloacae clinical isolate assessed as fold reduction in meropenem MIC at 128 ug/ml; details: dose 128.0 µg/ml
Escherichia coli [21] = test: Substrate activity at Escherichia coli beta-lactamase NDM-1 assessed as compound hydrolysis by measuring kcat/km by Michaelis-Menten analysis
Escherichia coli [22] = test: Substrate activity at Escherichia coli beta-lactamase VIM-2 assessed as compound hydrolysis by measuring Kcat/Km by Michaelis-Menten analysis
Klebsiella pneumoniae [23] = test: Antibacterial activity against beta-lactamase IMP-28 producing Klebsiella pneumoniae clinical isolate measured upto 128 ug/ml; type: functional, organism-based
[24] = Inhibition of Enterobacter cloacae IMP-1 using nitrocefin chromogenic substrate measured after 15 to 60 min at 25 degC by microplate reader
Klebsiella pneumoniae [25] = test: Substrate activity at Klebsiella pneumoniae beta-lactamase IMP-28 assessed as compound hydrolysis by measuring Km by Michaelis-Menten analysis
[26] = Inhibition of Escherichia coli beta-lactamase VIM-2 using nitrocefin chromogenic substrate measured after 15 to 60 min at 25 degC by microplate reader
[27] = Inhibition of Escherichia coli beta-lactamase NDM-1 using nitrocefin chromogenic substrate measured after 15 to 60 min at 25 degC by microplate reader
Enterobacter cloacae [28] = test: Inhibition of Enterobacter cloacae Metallo-beta-lactamase IMP-1
Escherichia coli [29] = test: Inhibition of Metallo-beta-lactamase VIM-2 in Escherichia coli clinical isolate assessed as fold reduction in meropenem MIC at 32 ug/ml; details: dose 32.0 µg/ml
Escherichia coli [30] = test: Substrate activity at Escherichia coli beta-lactamase NDM-1 assessed as compound hydrolysis by measuring Km by Michaelis-Menten analysis
Escherichia coli [31] = test: Inhibition of Metallo-beta-lactamase NDM-1 in Escherichia coli clinical isolate assessed as MIC for meropenem antibacterial activity at 64 ug/ml (reference value: 32 ug/ml); details: dose 64.0 µg/ml
Enterobacter cloacae [32] = test: Inhibition of Metallo-beta-lactamase IMP-1 in Enterobacter cloacae clinical isolate assessed as MIC for meropenem antibacterial activity at 128 ug/ml (reference value: 32 ug/ml); details: dose 128.0 µg/ml
[33] = Stability of the compound assessed as Klebsiella pneumoniae beta-lactamase IMP-28-mediated degradation by measuring appearance of vinyl protons release measured after 120 mins by NMR spectra; type: ADME; details: 2 h
Klebsiella pneumoniae [34] = test: Substrate activity at Klebsiella pneumoniae beta-lactamase IMP-28 assessed as compound hydrolysis by measuring Kcat by Michaelis-Menten analysis
Enterobacter cloacae [35] = test: Inhibition of Metallo-beta-lactamase IMP-1 in Enterobacter cloacae clinical isolate assessed as fold reduction in meropenem MIC at 64 ug/ml; details: dose 64.0 µg/ml
Escherichia coli [36] = test: Inhibition of Metallo-beta-lactamase NDM-1 in Escherichia coli clinical isolate assessed as fold reduction in meropenem MIC at 64 ug/ml; details: dose 64.0 µg/ml
Klebsiella pneumoniae [37] = test: Inhibition of Klebsiella pneumoniae beta Metallo-beta-lactamase IMP-28
Escherichia coli [38] = test: Inhibition of Metallo-beta-lactamase NDM-1 in Escherichia coli clinical isolate assessed as MIC for meropenem antibacterial activity at 128 ug/ml (reference value: 32 ug/ml); details: dose 128.0 µg/ml
Escherichia coli [39] = test: Antibacterial activity against beta-lactamase VIM2 producing Escherichia coli clinical isolate measured upto 128 ug/ml; type: functional, organism-based
Escherichia coli [40] = test: Inhibition of Metallo-beta-lactamase VIM-2 in Escherichia coli clinical isolate assessed as MIC for meropenem antibacterial activity at 64 ug/ml (reference value: 8 ug/ml); details: dose 64.0 µg/ml
Escherichia coli [41] = test: Substrate activity at Escherichia coli beta-lactamase NDM-1 assessed as compound hydrolysis by measuring Kcat by Michaelis-Menten analysis
Klebsiella pneumoniae [42] = test: Inhibition of Metallo-beta-lactamase IMP-28 in Klebsiella pneumoniae clinical isolate assessed as MIC for meropenem antibacterial activity at 32 ug/ml (reference value: 4 ug/ml); details: dose 32.0 µg/ml
Enterobacter cloacae [43] = test: Inhibition of Metallo-beta-lactamase IMP-1 in Enterobacter cloacae clinical isolate assessed as fold reduction in meropenem MIC at 32 ug/ml; details: dose 32.0 µg/ml
Klebsiella pneumoniae [44] = test: Inhibition of Metallo-beta-lactamase IMP-28 in Klebsiella pneumoniae clinical isolate assessed as fold reduction in meropenem MIC at 64 ug/ml; details: dose 64.0 µg/ml
Escherichia coli [45] = test: Inhibition of Metallo-beta-lactamase NDM-1 in Escherichia coli clinical isolate assessed as fold reduction in meropenem MIC at 32 ug/ml; details: dose 32.0 µg/ml
Escherichia coli [46] = test: Antibacterial activity against beta-lactamase NDM1 producing Escherichia coli clinical isolate measured upto 128 ug/ml; type: functional, organism-based
[47] = Metabolic stability of the compound assessed as Klebsiella pneumoniae beta-lactamase IMP-28-mediated metabolism by (2R)-2-((R)-carboxy(2-phenylacetamido)methyl)-5-((carboxy(phenyl)methylthio)methyl)-5,6-dihydro-2H-1,3-thiazine-4-carboxylic acid by LC-MS analysis; type: ADME

SMILES: O=C(Cc1ccccc1)N[C@@H]1C(=O)N2C(C(=O)O)=C(CS[C@H](Cc3ccccc3)C(=O)O)CS[C@H]12
- fold change (FC) (Klebsiella pneumoniae [1]): > 64
- Drug metabolism [2]: Metabolite_Detected
- MIC (Escherichia coli [3]): 16 mg/L (≈ 31.2 µM)
- MIC (Klebsiella pneumoniae [4]): < 0.063 mg/L
- fold change (FC) (Escherichia coli [5]): 4
- MIC (Klebsiella pneumoniae [6]): < 0.063 mg/L
- kcat (Escherichia coli [7]): 2.35 s⁻¹
- MIC (Escherichia coli [8]): 4 mg/L (≈ 7.8 µM)
- Activity (Enterobacter cloacae [9]): inactive
- fold change (FC) (Escherichia coli [10]): 2
- fold change (FC) (Klebsiella pneumoniae [11]): > 64
- pIC50 [12]: 5.96
- fold change (FC) (Escherichia coli [13]): 4
- MIC (Enterobacter cloacae [14]): 1 mg/L (≈ 1.95 µM)
- MIC (Escherichia coli [15]): 2 mg/L (≈ 3.9 µM)
- kcat/Km (Klebsiella pneumoniae [16]): 11000 M⁻¹ s⁻¹
- remaining at 15 h [17]: > 95%
- MIC (Enterobacter cloacae [18]): 1 mg/L (≈ 1.95 µM)
- Km (Escherichia coli [19]): 4.3 µM
- fold change (FC) (Enterobacter cloacae [20]): 64
- kcat/Km (Escherichia coli [21]): 821000 M⁻¹ s⁻¹
- kcat/Km (Escherichia coli [22]): 546000 M⁻¹ s⁻¹
- Activity (Klebsiella pneumoniae [23]): inactive
- pIC50 [24]: 5.33
- Km (Klebsiella pneumoniae [25]): 249 µM
- pIC50 [26]: 4.80
- pIC50 [27]: 4.03
- inhibition (Enterobacter cloacae [28]): Active
- fold change (FC) (Escherichia coli [29]): 2
- Km (Escherichia coli [30]): 21.2 µM
- MIC (Escherichia coli [31]): 8 mg/L (≈ 15.6 µM)
- MIC (Enterobacter cloacae [32]): 0.5 mg/L (≈ 0.975 µM)
- Stability [33]: Stable
- kcat (Klebsiella pneumoniae [34]): 2.83 s⁻¹
- fold change (FC) (Enterobacter cloacae [35]): 32
- fold change (FC) (Escherichia coli [36]): 4
- inhibition (Klebsiella pneumoniae [37]): Active
- MIC (Escherichia coli [38]): 8 mg/L (≈ 15.6 µM)
- Activity (Escherichia coli [39]): inactive
- MIC (Escherichia coli [40]): 4 mg/L (≈ 7.8 µM)
- kcat (Escherichia coli [41]): 17.4 s⁻¹
- MIC (Klebsiella pneumoniae [42]): < 0.063 mg/L
- fold change (FC) (Enterobacter cloacae [43]): 32
- fold change (FC) (Klebsiella pneumoniae [44]): > 64
- fold change (FC) (Escherichia coli [45]): 2
- Activity (Escherichia coli [46]): inactive

SMILES: O=C(Cc1ccccc1)N[C@@H]1C(=O)N2C(C(=O)O)=C(CSC(C(=O)O)c3ccccc3)CS[C@H]12 (some centres not stated)
- fold change (FC) (Klebsiella pneumoniae [1]): > 64
- Drug metabolism [47]: Metabolite_Detected
- MIC (Escherichia coli [3]): 16 mg/L (≈ 32.1 µM)
- MIC (Klebsiella pneumoniae [4]): < 0.063 mg/L
- fold change (FC) (Escherichia coli [5]): 4
- MIC (Klebsiella pneumoniae [6]): < 0.063 mg/L
- kcat (Escherichia coli [7]): 4.06 s⁻¹
- MIC (Escherichia coli [8]): 4 mg/L (≈ 8.02 µM)
- Activity (Enterobacter cloacae [9]): inactive
- fold change (FC) (Escherichia coli [10]): 4
- fold change (FC) (Klebsiella pneumoniae [11]): > 64
- pIC50 [12]: 6.34
- fold change (FC) (Escherichia coli [13]): 8
- MIC (Enterobacter cloacae [14]): 1 mg/L (≈ 2.01 µM)
- MIC (Escherichia coli [15]): 1 mg/L (≈ 2.01 µM)
- kcat/Km (Klebsiella pneumoniae [16]): 3000 M⁻¹ s⁻¹
- remaining at 15 h [17]: > 95%
- MIC (Enterobacter cloacae [18]): 0.5 mg/L (≈ 1 µM)
- Km (Escherichia coli [19]): 8.28 µM
- fold change (FC) (Enterobacter cloacae [20]): 64
- kcat/Km (Escherichia coli [21]): 936000 M⁻¹ s⁻¹
- kcat/Km (Escherichia coli [22]): 490000 M⁻¹ s⁻¹
- Activity (Klebsiella pneumoniae [23]): inactive
- pIC50 [24]: 6.33
- Km (Klebsiella pneumoniae [25]): 129 µM
- pIC50 [26]: 5.00
- pIC50 [27]: < 4.00
- inhibition (Enterobacter cloacae [28]): Active
- fold change (FC) (Escherichia coli [29]): 2
- Km (Escherichia coli [30]): 14 µM
- MIC (Escherichia coli [31]): 16 mg/L (≈ 32.1 µM)
- MIC (Enterobacter cloacae [32]): 0.5 mg/L (≈ 1 µM)
- Stability [33]: Stable
- kcat (Klebsiella pneumoniae [34]): 0.386 s⁻¹
- fold change (FC) (Enterobacter cloacae [35]): 64
- fold change (FC) (Escherichia coli [36]): 2
- inhibition (Klebsiella pneumoniae [37]): Active
- MIC (Escherichia coli [38]): 8 mg/L (≈ 16 µM)
- Activity (Escherichia coli [39]): inactive
- MIC (Escherichia coli [40]): 2 mg/L (≈ 4.01 µM)
- kcat (Escherichia coli [41]): 13.1 s⁻¹
- MIC (Klebsiella pneumoniae [42]): < 0.063 mg/L
- fold change (FC) (Enterobacter cloacae [43]): 32
- fold change (FC) (Klebsiella pneumoniae [44]): > 64
- fold change (FC) (Escherichia coli [45]): 2
- Activity (Escherichia coli [46]): inactive
